Assay results as given in patent publication US10975056B2 (GlaxoSmithKline Intellectual Property Development Limited, priority 2016, dated 2021).
Values joined by “and” are separate entries in the source; they are usually repeats but may differ in a detail not shown here. Equal values may be shown once. Where a name gives a salt, the structure may show the parent alone.

The compounds below were run against DNMT1 (Homo sapiens, UniProt P26358) (assay: DNMT1 biochemical activity, breaklight assay and/or SPA assay). Settings: DNMT1 BioChemical (pIC50 category), binned activity in either the breaklight or the SPA assay.
Chain of DNMT1 (P26358 whole entry, looked up): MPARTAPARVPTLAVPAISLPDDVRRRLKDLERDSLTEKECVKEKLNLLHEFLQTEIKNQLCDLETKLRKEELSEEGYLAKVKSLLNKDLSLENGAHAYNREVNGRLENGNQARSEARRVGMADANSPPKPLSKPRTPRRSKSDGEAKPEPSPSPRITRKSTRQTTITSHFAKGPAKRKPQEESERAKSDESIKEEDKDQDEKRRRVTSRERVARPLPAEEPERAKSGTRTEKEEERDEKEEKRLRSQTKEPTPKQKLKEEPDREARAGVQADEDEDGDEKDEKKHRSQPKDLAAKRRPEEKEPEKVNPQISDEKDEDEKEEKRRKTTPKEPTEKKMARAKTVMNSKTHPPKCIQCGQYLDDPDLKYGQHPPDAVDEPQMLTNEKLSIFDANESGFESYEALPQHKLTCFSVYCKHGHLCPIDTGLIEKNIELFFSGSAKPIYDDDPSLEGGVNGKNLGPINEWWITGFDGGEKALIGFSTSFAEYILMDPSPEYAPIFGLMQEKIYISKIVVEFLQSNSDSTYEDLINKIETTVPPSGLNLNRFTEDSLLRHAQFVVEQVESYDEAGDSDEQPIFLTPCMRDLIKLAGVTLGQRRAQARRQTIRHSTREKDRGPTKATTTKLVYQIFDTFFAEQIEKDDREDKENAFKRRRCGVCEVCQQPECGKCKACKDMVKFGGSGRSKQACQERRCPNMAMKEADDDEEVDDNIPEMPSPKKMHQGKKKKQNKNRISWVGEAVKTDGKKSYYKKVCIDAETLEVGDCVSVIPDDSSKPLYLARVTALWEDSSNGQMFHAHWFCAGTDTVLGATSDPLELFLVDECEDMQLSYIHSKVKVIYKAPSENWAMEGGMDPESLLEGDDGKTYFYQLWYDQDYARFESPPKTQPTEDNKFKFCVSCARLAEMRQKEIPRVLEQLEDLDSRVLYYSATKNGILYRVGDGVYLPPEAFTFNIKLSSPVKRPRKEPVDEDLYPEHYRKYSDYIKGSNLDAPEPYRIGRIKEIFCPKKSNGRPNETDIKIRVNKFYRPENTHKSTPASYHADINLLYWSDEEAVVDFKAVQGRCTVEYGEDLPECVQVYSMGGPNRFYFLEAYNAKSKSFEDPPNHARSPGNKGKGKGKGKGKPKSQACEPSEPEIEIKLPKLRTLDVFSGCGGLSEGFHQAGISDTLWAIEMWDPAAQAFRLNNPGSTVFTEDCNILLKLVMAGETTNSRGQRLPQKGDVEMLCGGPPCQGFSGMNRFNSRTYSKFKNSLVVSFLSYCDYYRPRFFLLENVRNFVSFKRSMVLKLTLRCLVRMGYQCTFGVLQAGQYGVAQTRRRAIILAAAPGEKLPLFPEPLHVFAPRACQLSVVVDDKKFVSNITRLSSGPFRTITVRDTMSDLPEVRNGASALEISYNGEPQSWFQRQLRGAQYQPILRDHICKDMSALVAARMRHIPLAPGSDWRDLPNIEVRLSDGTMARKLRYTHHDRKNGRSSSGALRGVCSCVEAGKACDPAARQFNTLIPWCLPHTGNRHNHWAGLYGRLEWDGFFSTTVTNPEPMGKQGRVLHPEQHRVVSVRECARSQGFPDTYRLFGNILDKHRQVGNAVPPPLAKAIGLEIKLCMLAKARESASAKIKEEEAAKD
Experimental: DNMT1 breaklight in vitro assays were conducted in a total volume of 50 μl in a standard 384 well format, using black non-binding surface microplates (Corning 3575). […] Negative control wells used 5 μl of DNMT1 and 5 μl of oligonucleotide but 0 μM SAM. All reagents were made up in 1× assay buffer (20 mM Tris pH 6.8, 25 mM NaCl, 0.5 mM MgCl2, 0.01% Triton X100 and 1 mM DTT). The reaction was incubated at 26° C. for 45 min and then stopped with the addition of 40 μl detection reagent. Detection reagent, made up in 1× Gla assay buffer (20 mM Tris pH 8.0, 80 mM NaCl, 0.75 mM MgCl2, 0.01% Triton X100 and 1 mM DTT) has a final concentration of 100 μM SAH (Sigma #A9384) and 0.0008 units/μl Gla1 restriction endonuclease (Sibenzyme #E494). Following addition of the detection reagent the plate was incubated in the dark at room temperature for 5 hr. Fluorescence intensity was then measured on the PHERAstar FS (BMG Labtech) at Ex 485 nm and Em 520 nm, with a gain of 400 and an integration time of 100 ms.
Biochemical activity of DNMT1 analyzed using SPA technology. Plates (Griener 784075) were pre-stamped with 100 nL/well of compound (11-point, 3-fold serial dilution). […] Low control wells contained 5 μL of buffer instead of enzyme. Following a 40 minute incubation, the reaction was quenched upon the addition of 10 μL of stop mixture containing 1 mM SAM (Sigma A7007) and 2 mg/mL PEI beads (Perkin Elmer RPNQ0098). Plates were sealed, centrifuged for 1 min and then read on a Viewlux (Perkin Elmer) using the 613 nm emission filter/300 s read time following a 30 minute dark adapt. Assay conditions prior to quench consisted of 40 nM DNMT1 (601-1600, produced internally), 100 nM 3H-SAM (American Radiolabeled Chemicals ART 0288), 900 nM SAM (New England BioLabs B9003S) and 200 nM hemi methylated DNA oligonucleotide (synthesized at Integrated DNA Technologies, 5′-[…]-3′) in 50 mM HEPES (pH 8.0), 2 mM MgCl2, 1 mM DTT, 0.01% NP-40 and 0.01% BSA.
Comments • 1. […] Where a field is empty, the compound was not tested in that assay.

SMILES | IC50 [nM]
CCc1c(C#N)c(S[C@@H](C(N)=O)c2ccccc2)nc(N2CC[C@@H](N)[C@@H](O)C2)c1C#N [Example 514, (R)-2-((6-((3S,4R)-4-amino-3-hydroxypiperidin-1-yl)-3,5-dicyano-4-ethylpyridin-2-yl)thio)-2-phenylacetamide, Trifluoroacetic acid salt] | < 316

Same assay, conditions: binned activity in either the breaklight or the SPA assay

DNMT1 BioChemical (pIC50 category) | SMILES
D (Category D: ≥6.5) | CCc1c(C#N)c(SC(C(N)=O)c2ccccc2)nc(N2CCC(C3CCN(CCO)CC3)CC2)c1C#N (stereo not shown) [Example 60, 2-((3,5-dicyano-4-ethyl-6-(1′-(2-hydroxyethyl)-[4,4′-bipiperidin]-1-yl)pyridin-2-yl)thio)-2-phenylacetamide]
D (Category D: ≥6.5) | CCc1c(C#N)c(SC(C(N)=O)c2ccc(F)cc2)nc(N2CCC(N(C)C3CCC3)CC2)c1C#N (stereo not shown) [Example 432, 2-((3,5-Dicyano-6-(4-(cyclobutyl(methyl)amino)piperidin-1-yl)-4-ethylpyridin-2-yl)thio)-2-(4-fluorophenyl)acetamide]
D (Category D: ≥6.5) | CCc1c(C#N)c(SC(C(N)=O)c2ccccc2)nc(N2CCC(NCC3(C)CC3)CC2)c1C#N (stereo not shown) [Example 473, 2-((3,5-dicyano-4-ethyl-6-(4-(((1-methylcyclopropyl)methyl)amino)piperidin-1-yl)pyridin-2-yl)thio)-2-phenylacetamide]
D (Category D: ≥6.5) | CCc1c(C#N)c(S[C@@H](C(N)=O)c2ccccc2)nc(N(C)[C@@H]2CCOC2)c1C#N [Example 501, (R)-2-(3,5-dicyano-4-ethyl-6-(methyl((R)-tetrahydrofuran-3-yl)amino)pyridin-2-ylthio)-2-phenylacetamide]
D (Category D: ≥6.5) | CCc1c(C#N)c(S[C@H](C(N)=O)c2ccccc2)nc(N(C)[C@@H]2CCOC2)c1C#N [Example 502, (S)-2-(3,5-dicyano-4-ethyl-6-(methyl((R)-tetrahydrofuran-3-yl)amino)pyridin-2-ylthio)-2-phenylacetamide]
D (Category D: ≥6.5) | CCc1c(C#N)c(SC(C(N)=O)c2ccccc2)nc(N2CCC(NCCOC)CC2)c1C#N (stereo not shown) [Example 553, 2-((3,5-dicyano-4-ethyl-6-(4-((2-methoxyethyl)amino)piperidin-1-yl)pyridin-2-yl)thio)-2-phenylacetamide]
D (Category D: ≥6.5) | CCc1c(C#N)c(SCc2ccc(N(C)S(C)(=O)=O)cc2)nc(N2CC[C@@H](CNC(=O)CN)C2)c1C#N [Example 672, (S)-2-amino-N-((1-(3,5-dicyano-4-ethyl-6-((4-(N-methylmethylsulfonamido)benzyl)thio)pyridin-2-yl)pyrrolidin-3-yl)methyl)acetamide]
D (Category D: ≥6.5) | CCc1c(C#N)c(SC(C(N)=O)c2ccccc2)nc(N2CCCN(CC(O)CO)CC2)c1C#N (stereo not shown) [Example 678, 2-((3,5-dicyano-6-(4-(2,3-dihydroxypropyl)-1,4-diazepan-1-yl)-4-ethylpyridin-2-yl)thio)-2-phenylacetamide]
D (Category D: ≥6.5) | COc1c(C#N)c(SC(C(N)=O)c2ccccc2)nc(N2CC[C@H](O)C2)c1C#N (stereo partly drawn) [Example 696, 2-((3,5-dicyano-6-((S)-3-hydroxypyrrolidin-1-yl)-4-methoxypyridin-2-yl)thio)-2-phenylacetamide]

Same assay, conditions: binned activity in either the breaklight or the SPA assay; read-out: DNMT1 BioChemical (pIC50 category) (converted)

IC50 [nM] | SMILES
1000 to 31600 | CCc1c(C#N)c(S[C@H](C(N)=O)c2ccccc2)nc(N2CCC(C)(N)CC2)c1C#N (single isomer, unassigned) [Example 617, 2-((6-(4-amino-4-methylpiperidin-1-yl)-3,5-dicyano-4-ethylpyridin-2-yl)thio)-2-phenylacetamide]
316 to 1000 | N#Cc1c(SC(C(N)=O)c2ccccc2)nc(N2CCCN(CCO)CC2)c(C#N)c1CC(F)(F)F (stereo not shown) [Example 113, 2-({3,5-Dicyano-6-[4-(2-hydroxyethyl)-1,4-diazepan-1-yl]-4-(2,2,2-trifluoroethyl)pyridin-2-yl}sulfanyl)-2-phenylacetamide]
316 to 1000 | CCc1c(C#N)c(SC(C(N)=O)c2ccccc2)nc(N2CCN(C(=O)c3ccccc3)CC2)c1C#N (stereo not shown) [Example 131, 2-((6-(4-Benzoylpiperazin-1-yl)-3,5-dicyano-4-ethylpyridin-2-yl)thio)-2-phenylacetamide]
316 to 1000 | CCc1c(C#N)c(SC(C(N)=O)c2ccccc2)nc(N2CC[C@@]3(CCCN3S(C)(=O)=O)[C@@H](O)C2)c1C#N (stereo partly drawn) [Example 132, 2-((3,5-Dicyano-4-ethyl-6-((5S,6S)-6-hydroxy-1-(methylsulfonyl)-1,8-diazaspiro[4.5]decan-8-yl)pyridin-2-yl)thio)-2-phenylacetamide]
316 to 1000 | CCc1c(C#N)c(SC(C(N)=O)c2ccccc2)nc(N2CCN(CCN3CCCC3)CC2)c1C#N (stereo not shown) [Example 304, 2-((3,5-Dicyano-4-ethyl-6-(4-(2-(pyrrolidin-1-yl)ethyl)piperazin-1-yl)pyridin-2-yl)thio)-2-phenylacetamide]
1000 to 31600 | CCc1c(C#N)c(S[C@@H](C(N)=O)c2ccccc2)nc(N(C)CCOP(=O)(O)O)c1C#N [Example 421, (R)-2-((6-((2-amino-2-oxo-1-phenylethyl)thio)-3,5-dicyano-4-ethylpyridin-2-yl(methyl)amino)ethyldihydroden phosphate]

Same assay, conditions: breaklight assay and/or SPA assay, repeated experimental runs; read-out: average pIC50 against DNMT1 (converted)

IC50 | SMILES
≥ 1000 nM and 2510 nM | CCc1c(C#N)c(S[C@H](C(N)=O)c2ccccc2)nc(N2CCC(C)(N)CC2)c1C#N (single isomer, unassigned) [Example 617, 2-((6-(4-amino-4-methylpiperidin-1-yl)-3,5-dicyano-4-ethylpyridin-2-yl)thio)-2-phenylacetamide]
316 to 1000 nM | CCc1c(C#N)c(SC(C(N)=O)c2ccccc2)nc(N2CCN(C(=O)c3ccccc3)CC2)c1C#N (stereo not shown) [Example 131, 2-((6-(4-Benzoylpiperazin-1-yl)-3,5-dicyano-4-ethylpyridin-2-yl)thio)-2-phenylacetamide]
316 to 1000 nM | CCc1c(C#N)c(SC(C(N)=O)c2ccccc2)nc(N2CC[C@@]3(CCCN3S(C)(=O)=O)[C@@H](O)C2)c1C#N (stereo partly drawn) [Example 132, 2-((3,5-Dicyano-4-ethyl-6-((5S,6S)-6-hydroxy-1-(methylsulfonyl)-1,8-diazaspiro[4.5]decan-8-yl)pyridin-2-yl)thio)-2-phenylacetamide]
